Measured values reported in PubChem BioAssay (NCI).
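48-hour exposure; five concentrations; linearly interpolated endpoints. GI50 = concentration required for 50% inhibition of growth. TGI is the concentration that stops growth completely.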

Tests used:
Experiment in all cases: growth of human tumour cells (NCI), 48 h
HOP-92 NSCLC = system: HOP-92 NSCLC
BT-549 breast = system: BT-549 breast
SNB-19 CNS = system: SNB-19 CNS
NCI-H522 lung = system: NCI-H522 lung
SK-MEL-28 melanoma = system: SK-MEL-28 melanoma
OVCAR-3 ovarian = system: OVCAR-3 ovarian
NCI-H460 lung = system: NCI-H460 lung
786-0 renal = system: 786-0 renal
HOP-62 NSCLC = system: HOP-62 NSCLC
OVCAR-8 ovarian = system: OVCAR-8 ovarian
HCT-116 colon = system: HCT-116 colon
TK-10 renal = system: TK-10 renal
RXF 393 renal = system: RXF 393 renal
MOLT-4 leukemia = system: MOLT-4 leukemia
NCI-H23 lung = system: NCI-H23 lung
CAKI-1 renal = system: CAKI-1 renal
UACC-62 melanoma = system: UACC-62 melanoma
SK-MEL-5 melanoma = system: SK-MEL-5 melanoma
IGROV1 ovarian = system: IGROV1 ovarian
SF-539 CNS = system: SF-539 CNS
SN12C renal = system: SN12C renal
A549 NSCLC = system: A549 NSCLC
SF-295 CNS = system: SF-295 CNS
K-562 leukemia = system: K-562 leukemia
SW-620 colon = system: SW-620 colon
MCF7 breast = system: MCF7 breast
MDA-N = system: MDA-N
SK-OV-3 ovarian = system: SK-OV-3 ovarian
M14 melanoma = system: M14 melanoma
HCT-15 colon = system: HCT-15 colon
CCRF-CEM leukemia = system: CCRF-CEM leukemia
UO-31 renal = system: UO-31 renal
DU-145 prostate = system: DU-145 prostate
PC-3 prostate = system: PC-3 prostate
HCC-2998 colon = system: HCC-2998 colon
U251 CNS = system: U251 CNS
NCI-H226 lung = system: NCI-H226 lung
SNB-75 CNS = system: SNB-75 CNS
RPMI-8226 leukemia = system: RPMI-8226 leukemia
UACC-257 melanoma = system: UACC-257 melanoma
KM12 colon = system: KM12 colon
HL-60(TB) leukemia = system: HL-60(TB) leukemia
SR leukemia = system: SR leukemia
COLO 205 colon = system: COLO 205 colon
MALME-3M melanoma = system: MALME-3M melanoma
HT29 colon = system: HT29 colon
OVCAR-4 ovarian = system: OVCAR-4 ovarian
SF-268 CNS = system: SF-268 CNS
ACHN renal = system: ACHN renal
SK-MEL-2 melanoma = system: SK-MEL-2 melanoma
NCI/ADR-RES ovarian = system: NCI/ADR-RES ovarian
OVCAR-5 ovarian = system: OVCAR-5 ovarian
EKVX NSCLC = system: EKVX NSCLC
MDA-MB-435 = system: MDA-MB-435
MDA-MB-231 breast = system: MDA-MB-231 breast
LOX IMVI melanoma = system: LOX IMVI melanoma
A498 renal = system: A498 renal
T-47D breast = system: T-47D breast
HS 578T breast = system: HS 578T breast

Molecule N#C/C(=C\c1cc(Br)c(O)c(Br)c1)c1ccccn1 has a TGI (HOP-92 NSCLC) of 46.2 µM, a TGI (BT-549 breast) greater than 100 µM and a TGI (SNB-19 CNS) greater than 100 µM. The TGI (NCI-H522 lung) was greater than 100 µM, the TGI (SK-MEL-28 melanoma) was greater than 100 µM and the TGI (OVCAR-3 ovarian) was greater than 100 µM. The TGI (NCI-H460 lung) was greater than 100 µM, the TGI (786-0 renal) was greater than 100 µM and the TGI (HOP-62 NSCLC) was greater than 100 µM. The TGI (OVCAR-8 ovarian) was greater than 100 µM, the TGI (HCT-116 colon) was greater than 100 µM and the TGI (TK-10 renal) was greater than 100 µM. It also gave a TGI (RXF 393 renal) greater than 100 µM, a TGI (MOLT-4 leukemia) greater than 100 µM and a TGI (NCI-H23 lung) greater than 100 µM. For the same molecule, the TGI (CAKI-1 renal) was greater than 100 µM, the TGI (UACC-62 melanoma) was greater than 100 µM and the TGI (SK-MEL-5 melanoma) was greater than 100 µM. It also gave a TGI (IGROV1 ovarian) greater than 100 µM, a TGI (SF-539 CNS) greater than 100 µM and a TGI (SN12C renal) greater than 100 µM. For the same molecule, the TGI (A549 NSCLC) was greater than 100 µM, the TGI (SF-295 CNS) was greater than 100 µM and the TGI (K-562 leukemia) was greater than 100 µM. It also gave a TGI (SW-620 colon) greater than 100 µM, a TGI (MCF7 breast) greater than 100 µM and a TGI (MDA-N) greater than 100 µM. For the same molecule, the TGI (SK-OV-3 ovarian) was greater than 100 µM, the TGI (M14 melanoma) was greater than 100 µM and the TGI (HCT-15 colon) was greater than 100 µM. It also gave a TGI (CCRF-CEM leukemia) greater than 100 µM, a TGI (UO-31 renal) greater than 100 µM and a TGI (DU-145 prostate) greater than 100 µM. It also gave a TGI (PC-3 prostate) greater than 100 µM, a TGI (HCC-2998 colon) greater than 100 µM and a TGI (U251 CNS) of 60 µM. The TGI (NCI-H226 lung) was greater than 100 µM, the TGI (SNB-75 CNS) was greater than 100 µM and the TGI (RPMI-8226 leukemia) was greater than 100 µM. For the same molecule, the TGI (UACC-257 melanoma) was greater than 100 µM, the TGI (KM12 colon) was greater than 100 µM and the TGI (HL-60(TB) leukemia) was greater than 100 µM. The TGI (SR leukemia) was greater than 100 µM, the TGI (COLO 205 colon) was greater than 100 µM and the TGI (MALME-3M melanoma) was 68.3 µM. The TGI (HT29 colon) was greater than 100 µM, the TGI (OVCAR-4 ovarian) was greater than 100 µM and the TGI (SF-268 CNS) was greater than 100 µM. For the same molecule, the TGI (ACHN renal) was greater than 100 µM, the TGI (SK-MEL-2 melanoma) was greater than 100 µM and the TGI (NCI/ADR-RES ovarian) was greater than 100 µM. For the same molecule, the TGI (OVCAR-5 ovarian) was greater than 100 µM and the TGI (EKVX NSCLC) was greater than 100 µM.
In the case of Cc1cc(I)cc(CN(C)CCN2CCOCC2)c1O, the GI50 (HOP-92 NSCLC) is reported as 38 µM, the TGI (HOP-92 NSCLC) is reported as greater than 100 µM and the GI50 (BT-549 breast) is reported as 43.7 µM. For the same molecule, the TGI (BT-549 breast) was greater than 100 µM, the GI50 (MDA-MB-435) was 67.3 µM and the TGI (MDA-MB-435) was greater than 100 µM. It also gave a GI50 (SNB-19 CNS) greater than 87.1 µM, a TGI (SNB-19 CNS) greater than 100 µM and a GI50 (NCI-H522 lung) of 79 µM. For the same molecule, the TGI (NCI-H522 lung) was greater than 100 µM, the GI50 (SK-MEL-28 melanoma) was greater than 78.1 µM and the TGI (SK-MEL-28 melanoma) was greater than 100 µM. The GI50 (OVCAR-3 ovarian) was 49.9 µM, the TGI (OVCAR-3 ovarian) was greater than 100 µM and the GI50 (NCI-H460 lung) was 43.4 µM. The TGI (NCI-H460 lung) was greater than 100 µM, the GI50 (786-0 renal) was greater than 100 µM and the TGI (786-0 renal) was greater than 100 µM. For the same molecule, the GI50 (HOP-62 NSCLC) was 64.7 µM, the TGI (HOP-62 NSCLC) was greater than 100 µM and the GI50 (OVCAR-8 ovarian) was 75.1 µM. For the same molecule, the TGI (OVCAR-8 ovarian) was greater than 100 µM, the GI50 (HCT-116 colon) was 30.4 µM and the TGI (HCT-116 colon) was greater than 100 µM. It also gave a GI50 (TK-10 renal) greater than 76.8 µM, a TGI (TK-10 renal) greater than 100 µM and a GI50 (RXF 393 renal) greater than 88 µM. The TGI (RXF 393 renal) was greater than 100 µM, the GI50 (MOLT-4 leukemia) was 35.7 µM and the TGI (MOLT-4 leukemia) was greater than 100 µM. The GI50 (NCI-H23 lung) was 62.7 µM, the TGI (NCI-H23 lung) was greater than 100 µM and the GI50 (CAKI-1 renal) was greater than 61.4 µM. It also gave a TGI (CAKI-1 renal) greater than 100 µM, a GI50 (MDA-MB-231 breast) of 97.9 µM and a TGI (MDA-MB-231 breast) greater than 100 µM. The GI50 (UACC-62 melanoma) was greater than 66.1 µM, the TGI (UACC-62 melanoma) was greater than 100 µM and the GI50 (SK-MEL-5 melanoma) was 35.3 µM. It also gave a TGI (SK-MEL-5 melanoma) greater than 85.6 µM, a GI50 (IGROV1 ovarian) of 37.2 µM and a TGI (IGROV1 ovarian) greater than 100 µM. The GI50 (SF-539 CNS) was greater than 100 µM, the TGI (SF-539 CNS) was greater than 100 µM and the GI50 (SN12C renal) was greater than 68 µM. The TGI (SN12C renal) was greater than 100 µM, the GI50 (A549 NSCLC) was 54.6 µM and the TGI (A549 NSCLC) was greater than 100 µM. It also gave a GI50 (SF-295 CNS) of 29.8 µM, a TGI (SF-295 CNS) greater than 82.3 µM and a GI50 (K-562 leukemia) of 28.4 µM. For the same molecule, the TGI (K-562 leukemia) was greater than 100 µM, the GI50 (SW-620 colon) was 55.2 µM and the TGI (SW-620 colon) was greater than 100 µM. The GI50 (MCF7 breast) was 44.1 µM, the TGI (MCF7 breast) was greater than 100 µM and the GI50 (SK-OV-3 ovarian) was greater than 100 µM. For the same molecule, the TGI (SK-OV-3 ovarian) was greater than 100 µM, the GI50 (M14 melanoma) was 79.3 µM and the TGI (M14 melanoma) was greater than 100 µM. The GI50 (HCT-15 colon) was 38.8 µM, the TGI (HCT-15 colon) was greater than 100 µM and the GI50 (CCRF-CEM leukemia) was 0.87 µM. The GI50 (UO-31 renal) was 45.2 µM, the TGI (UO-31 renal) was greater than 100 µM and the GI50 (DU-145 prostate) was 61 µM. For the same molecule, the TGI (DU-145 prostate) was greater than 100 µM, the GI50 (PC-3 prostate) was 34.9 µM and the TGI (PC-3 prostate) was greater than 100 µM. It also gave a GI50 (HCC-2998 colon) greater than 80.8 µM, a TGI (HCC-2998 colon) greater than 100 µM and a GI50 (U251 CNS) of 49.7 µM. It also gave a TGI (U251 CNS) greater than 100 µM, a GI50 (NCI-H226 lung) greater than 76.9 µM and a TGI (NCI-H226 lung) greater than 100 µM. It also gave a GI50 (SNB-75 CNS) of 53.5 µM, a TGI (SNB-75 CNS) greater than 100 µM and a GI50 (RPMI-8226 leukemia) of 30.2 µM. The TGI (RPMI-8226 leukemia) was greater than 100 µM, the GI50 (UACC-257 melanoma) was 99.5 µM and the TGI (UACC-257 melanoma) was greater than 100 µM. It also gave a GI50 (KM12 colon) of 44.5 µM, a TGI (KM12 colon) greater than 100 µM and a GI50 (HL-60(TB) leukemia) of 25.8 µM. It also gave a TGI (HL-60(TB) leukemia) of 66.6 µM, a GI50 (SR leukemia) of 12.5 µM and a TGI (SR leukemia) of 97.7 µM. It also gave a GI50 (COLO 205 colon) of 71.6 µM, a TGI (COLO 205 colon) greater than 100 µM and a GI50 (MALME-3M melanoma) greater than 78.8 µM. For the same molecule, the TGI (MALME-3M melanoma) was greater than 100 µM, the GI50 (LOX IMVI melanoma) was 65 µM and the TGI (LOX IMVI melanoma) was greater than 100 µM. The GI50 (HT29 colon) was 33.4 µM, the TGI (HT29 colon) was greater than 100 µM and the GI50 (OVCAR-4 ovarian) was 53.2 µM. It also gave a TGI (OVCAR-4 ovarian) greater than 100 µM, a GI50 (SF-268 CNS) of 59.5 µM and a TGI (SF-268 CNS) greater than 100 µM. It also gave a GI50 (A498 renal) of 43.3 µM, a TGI (A498 renal) greater than 96.3 µM and a GI50 (ACHN renal) of 60.2 µM. It also gave a TGI (ACHN renal) greater than 100 µM, a GI50 (SK-MEL-2 melanoma) greater than 100 µM and a TGI (SK-MEL-2 melanoma) greater than 100 µM. The GI50 (NCI/ADR-RES ovarian) was 59.8 µM, the TGI (NCI/ADR-RES ovarian) was greater than 100 µM and the GI50 (OVCAR-5 ovarian) was greater than 100 µM. For the same molecule, the TGI (OVCAR-5 ovarian) was greater than 100 µM, the GI50 (T-47D breast) was 27.5 µM and the TGI (T-47D breast) was greater than 100 µM. For the same molecule, the GI50 (EKVX NSCLC) was 47.1 µM, the TGI (EKVX NSCLC) was greater than 100 µM and the GI50 (HS 578T breast) was 23.4 µM. For the same molecule, the TGI (HS 578T breast) was greater than 72.5 µM.
